Where “and” joins values, the source holds several entries; their conditions need not be identical. Equal values may be shown once.
Experiments:
[1] = Stress test: strong acid, strong base and neutral degradation (RP-HPLC); assay type: physicochemical
Protocol: Several tests were conducted using the ICH guidelines to assess the compound’s stability. In the stress test, two structural isomers of ester-type hybrid compounds were chosen to estimate the structure’s relationship to the compound’s stability. The tested substances were subjected to hydrolysis–solvolysis in neutral, acidic, and alkaline media. As solvents, water, hydrochloric acid, and sodium hydroxide were used in appropriate concentrations.
Reversed-phase HPLC was used to analyse the degree of degradation. Chromatograms were developed with DAD detection at 254 nm, 308 nm (λmax for 2), and 340 nm (λmax for 6). […] .
Then, 2.0 mL samples of the tested solutions (c ~60 µg/mL) were prepared in hydrochloric acid (0.1; 0.01 M) or sodium hydroxide solution (0.1, 0.01 M) and demineralised water. The solutions were transferred to glass vials, encapsulated, and stored in a thermal chamber at 90 °C, 40 °C, or 25 °C. After the appropriate time (Table 1), the samples were cooled, diluted with methanol (1:1), and transferred to the chromatography column.

[2] = Photostability in the solid state (IR spectra of KBr tablets); settings: for ICH Classification: light, solid phase; for Compatibility of the IR spectrum with the spectrum before irradiation: solid phase (KBr tablet)
SCC-25 cells = assay: Sonodynamic cytotoxicity, MTT test; assay type: cell-based, human; settings: 40 µM, 8 h, then US 3 min, 3 MHz, 0.8 W/cm^2; MTT 6 h later; compared to untreated cells
BChE = BChE (Homo sapiens, UniProt P06276); assay type: biochemical; settings: samples 3 mM/dm^3 in DMSO, 0.035 mL; mean ± SEM, n = 3
Chain of BChE (P06276 29-602, species assumed): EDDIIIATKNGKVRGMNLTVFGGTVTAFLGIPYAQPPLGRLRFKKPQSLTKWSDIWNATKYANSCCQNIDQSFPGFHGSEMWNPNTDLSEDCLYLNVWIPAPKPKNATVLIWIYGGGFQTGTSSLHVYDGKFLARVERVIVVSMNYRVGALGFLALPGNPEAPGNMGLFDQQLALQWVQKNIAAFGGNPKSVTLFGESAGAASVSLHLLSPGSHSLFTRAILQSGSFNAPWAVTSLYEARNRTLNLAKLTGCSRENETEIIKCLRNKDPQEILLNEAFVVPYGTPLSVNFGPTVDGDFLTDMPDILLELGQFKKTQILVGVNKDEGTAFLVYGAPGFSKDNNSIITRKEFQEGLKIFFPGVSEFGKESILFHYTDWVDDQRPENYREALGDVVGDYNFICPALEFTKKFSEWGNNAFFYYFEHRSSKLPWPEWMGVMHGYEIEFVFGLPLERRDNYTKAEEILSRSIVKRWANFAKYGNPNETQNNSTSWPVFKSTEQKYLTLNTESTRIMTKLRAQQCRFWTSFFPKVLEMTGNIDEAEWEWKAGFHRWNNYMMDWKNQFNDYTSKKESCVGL

SOD2 gene = system: SOD2 gene; set-up: method as in PMID 37779412; settings: qRT-PCR ref 35; cited from earlier work
catalase (CAT) = target: T1, catalase (CAT) (Aspergillus niger, UniProt P55303); assay: Effect on CAT activity; assay type: biochemical; settings: samples 3 mM/dm^3 in DMSO, 0.01 mL; mean ± SEM, n = 3
T1 construct: purchased Sigma C3515
T1 sequence (P55303 whole entry): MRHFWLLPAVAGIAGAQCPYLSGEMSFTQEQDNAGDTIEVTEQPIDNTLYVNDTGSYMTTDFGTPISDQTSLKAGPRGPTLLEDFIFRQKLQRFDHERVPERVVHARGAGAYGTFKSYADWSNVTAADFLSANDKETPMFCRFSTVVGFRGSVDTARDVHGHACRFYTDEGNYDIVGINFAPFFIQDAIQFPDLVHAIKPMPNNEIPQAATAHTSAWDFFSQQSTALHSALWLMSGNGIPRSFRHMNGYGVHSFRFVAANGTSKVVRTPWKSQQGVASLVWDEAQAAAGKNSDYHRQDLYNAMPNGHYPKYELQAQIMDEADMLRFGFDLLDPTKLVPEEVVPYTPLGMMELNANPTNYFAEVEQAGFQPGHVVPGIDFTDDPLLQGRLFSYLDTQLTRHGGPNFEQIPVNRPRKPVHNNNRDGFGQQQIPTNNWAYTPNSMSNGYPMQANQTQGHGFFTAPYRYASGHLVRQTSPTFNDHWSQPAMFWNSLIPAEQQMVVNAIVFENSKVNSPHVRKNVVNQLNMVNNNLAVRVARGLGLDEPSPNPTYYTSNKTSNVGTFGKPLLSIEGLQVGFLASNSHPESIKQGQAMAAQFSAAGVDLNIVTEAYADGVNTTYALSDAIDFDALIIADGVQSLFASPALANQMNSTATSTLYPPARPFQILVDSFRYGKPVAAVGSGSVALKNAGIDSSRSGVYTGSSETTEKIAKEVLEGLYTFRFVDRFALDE
Protocol: The samples were dissolved in DMSO (Sigma D4540) to obtain a concentration of 3 mM/dm^3.
The method used by Watanabe et al. was used with the following modifications. The reaction mixture was composed of 0.02 mL of EDTA solution (56.5 mM), 0.01 mL of ^the sample, 0.02 mL of 3% H2O2 solution (Sigma H1009), and 0.02 mL of catalase solution (4000-fold diluted, Sigma C3515) (all reagents except the tested sample were diluted in TRIS buffer, pH 7.0, 1 mol/dm^3). The volume was completed to 0.31 mL by the same buffer solution. In a blank sample, DMSO (Sigma D4540) replaced the tested sample. The background of the sample was measured in a mixture composed of 0.01 mL of the sample completed to 0.31 mL by the buffer. The absorbance was read at 240 nm directly after the mixing and after 5 min of incubation (room temperature). The decreased absorbance (depletion of H2O2) in the tested and blank samples was compared. The calibration curve was produced using eleven H2O2 solutions (0.5693–5.693 mM/dm^3). The results are expressed in % inhibition and as H2O2 depletion (mmol of depleted H2O2/dm^3 min).

[3] = acidic environment, HCl 0.01 M, 40 °C, 8 h
[4] = alkaline environment, NaOH 0.01 M, 25 °C, 2 h
[5] = neutral environment, H2O, 90 °C, 24 h
[6] = not protected, 1.2 × 10^6 lux·h
[7] = not protected, 6.0 × 10^6 lux·h

SMILES | % Decomposition ([1]; H2O, 90 °C, 24 h) | Ct ([1]; H2O, 90 °C, 24 h) | % Decomposition ([1]; HCl 0.01 M, 40 °C, 8 h) | Ct ([1]; HCl 0.01 M, 40 °C, 8 h) | % Decomposition ([1]; HCl 0.1 M, 90 °C, 16 h) | Ct ([1]; HCl 0.1 M, 90 °C, 16 h) | % Decomposition ([1]; NaOH 0.01 M, 25 °C, 2 h) | Ct ([1]; NaOH 0.01 M, 25 °C, 2 h) | % Decomposition ([1]; NaOH 0.1 M, 90 °C, 16 h) | Ct ([1]; NaOH 0.1 M, 90 °C, 16 h) | ICH Classification [1, 3] | ICH Classification [1, 4] | ICH Classification [1, 5] | ICH Classification [2] | Compatibility of the IR spectrum with the spectrum before irradiation [2, 6] | Compatibility of the IR spectrum with the spectrum before irradiation [2, 7] | Compatibility of the IR spectrum with the spectrum before irradiation ([2]; protected, 1.2 × 10^6 lux·h) | Compatibility of the IR spectrum with the spectrum before irradiation ([2]; protected, 6.0 × 10^6 lux·h) | BChE % (inhibition) (BChE) | BChE, Equivalent Concentration of Reference Compound Magniflorine (BChE) | also measured
COc1cc(C=CC(=O)c2ccccc2)ccc1OC(=O)C(C)c1ccc(CC(C)C)cc1 (stereo not shown) [Compound 2, 2-Methoxy-4-(3-oxo-3-phenylprop-1-en-1-yl)phenyl-2-(4-isobutylphenyl)-propionate] | 24.4% | 46.3 µg/mL | 44% and 43.8% | 33.7 µg/mL | 91.8% | 5.0 µg/mL | 100% | 0 µg/mL | 100% | 0 µg/mL | very unstable | extremely unstable | unstable | Photolabile | 0.9404 | 0.9017 | 0.9995 | 0.9994 | 89.7 ± 4.8% | 0.35 ± 0.02 µg/mL | Reduction of viability of SCC-25 cells, compound combined with US (SCC-25 cells): significantly reduced viability; BChE, Equivalent Concentration of Reference Compound Rivastigmine (BChE): 0.26 ± 0.01 µg/mL
COc1ccc(C=CC(=O)c2ccccc2)cc1OC(=O)C(C)c1ccc(CC(C)C)cc1 (stereo not shown) [Compound 6, 2-Methoxy-5-(3-oxo-3-phenylprop-1-en-1-yl)phenyl-2-(4-isobutylphenyl)-propionate] | 23.9% | 50.9 µg/mL | 18% and 17.8% | 49.3 µg/mL | 97.8% | 1.5 µg/mL | 100% | 0 µg/mL | 100% | 0 µg/mL | very unstable | extremely unstable | unstable | Photolabile | 0.9962 | 0.9752 | 0.9997 | 0.9993 | 77.3 ± 5.2% | 0.30 ± 0.02 µg/mL | Decrease of expression of the SOD2 gene compared to the control (SOD2 gene): 65.20%; CAT Inhibition (%) (catalase (CAT)): 41.9 ± 1.2%; CAT Inhibition of the H2O2 Depletion (catalase (CAT)): 0.15 ± 0.01 mm/dm^3/min; BChE, Equivalent Concentration of Reference Compound Rivastigmine (BChE): 0.22 ± 0.02 µg/mL

Reference: PMC10535624, “Curcuminoid Chalcones: Synthesis, Stability, and New Neuroprotective and Sonosensitising Activities” (Pharmaceuticals, 2023)
